Source: patent US20240209334A1, “SMALL-MOLECULE-ACTIVATED GLYCAN MODIFYING ENZYMES AND USES THEREOF” (President and Fellows of Harvard College, priority 2022, published 2024)

Tests used:
Format in all cases: cell-based, human
MCF7-C181 cells [1] = test: Cell viability, CCK-8 assay; conditions: 48 hours
Text: (§1) In addition to serving as an activator for intein splicing, 4-HT is also known as the active metabolite of tamoxifen, an FDA-approved drug for treating breast cancer patients. Breast cancer cells also have elevated OGT expression (39) and decreased levels of OGA (40, 41), resulting in elevated O-GlcNAcylation in the proteome. OGT is usually required for tumor growth and metastasis (39), and low OGA expression is correlated with poor survival in breast cancer patients (FIG. 13). The ER positive breast cancer-derived MCF-7 cell line is sensitive to tamoxifen and 4-HT, resulting in suppression of cell proliferation, yet drug resistance occurs after long-term treatment (42). […] To determine if reduction of O-GlcNAc sensitized MCF-7 cells to 4-HT treatment, it was assessed whether 4-HT induced inhibition of breast cancer cell proliferation and OGA-intein activation worked synergistically to accelerate cell death (FIG. 5A). […] Next, these two cell lines were treated with 4-HT at increasing concentrations, and cell viability was measured after 48 hours. […] Given that 4-HT promoted MCF-7 cell death through apoptosis (43), the apoptosis of these cells under 4-HT treatment was further analyzed through flow cytometry analyses following Annexin V and DAPI staining. […]
(§2) Cell viability assay. Cell viability was assessed by CCK-8 assay. […]

MCF7-C181_D174N cells = test: Cell viability, CCK-8 assay; conditions: 48 hours
Text: as §1, §2

regular MCF-7 cells = test: Cell viability, CCK-8 assay; conditions: 48 hours
Text: as §1, §2

MCF7-C181 cells [2] = test: Apoptosis, Annexin V/DAPI flow cytometry; conditions: 10 μM 4-HT for 24 hours
Text: as §1
(§3) Detection of cell apoptosis. […] Data was analyzed by FlowJo v10.

MCF7-C181_D174N = test: Apoptosis, Annexin V/DAPI flow cytometry; conditions: 10 μM 4-HT for 24 hours
Text: as §1, §3

In the case of `CC/C(=C(\c1ccc(O)cc1)c1ccc(OCCN(C)C)cc1)c1ccccc1` [4-HT, 4-hydroxytamoxifen], the “4-HT concentration giving almost complete cell survival inhibition” value (MCF7-C181 cells [1]) is reported as 5 µM, the “4-HT concentration required for suppressing survival” value (MCF7-C181_D174N cells) is reported as > 5 µM and the “4-HT concentration required for suppressing survival” value (regular MCF-7 cells) is reported as > 5 µM. The apoptotic cells (MCF7-C181 cells [2]) was 6.84% and the apoptotic cells (MCF7-C181_D174N) was 6.09%.
